The test deals with CD4 T cells. Briefly: CD4 T cell activation and differentiation in vitro with Dkk-1 or Wnt3a. The format is cell-based, mice. To be noted: naïve CD4 T cells, Wnt3a 20% v/v, 96 hours. The text has this:
FIG. 5, comprising FIG. 5A through FIG. 5E, depicts results of experiments showing Dkk-1 induces TH2 cell polarization. FIG. 5A depicts lungs harvested for immunohistochemistry of CD3 (dark brown), CD41 (blue) and isotype control antibodies of lungs from Dkk-1^d/d mice and their wildtype littermate controls challenged with HDM extract allergen. Orange arrowheads in the images indicate co-localized CD3 T cells with CD41^+ platelets. FIG. 5B depicts ELISA analysis of Dkk-1 from plasma samples from Dkk-1^d/d mice (n=5) collected 24 hours after challenge with 50 μg HDM. FIG. 5C depicts ELISA analysis of splenic CD4 T cells from 6-8 week-old C57BL/6 mice were activated with anti-CD3 and anti-CD28 antibodies (Act) with or without Dkk-1 (30 ng/ml unless indicated) for 4 days. FIG. 5D depicts flow cytometry analysis of splenic CD4 T cells from 6-8 week-old C57BL/6 mice were activated with anti-CD3 and anti-CD28 antibodies (Act) with or without Dkk-1 (30 ng/ml unless indicated) for 4 days. FIG. 5E depicts ELISA analysis of naïve CD4 T cells stimulated anti-CD3 and anti-CD28 antibodies for 96 hr with or without Dkk-1.
FIG. 6, comprising FIG. 6A through FIG. 6E, depicts results of experiments showing Dkk-1 induces TH2 cytokines in various T cell differentiation conditions. FIG. 6A depicts flow cytometry and ELISA analysis of naïve CD4 T cells were stimulated under TH1 polarization conditions for 96 hours with or without Dkk-1. FIG. 6B depicts flow cytometry and ELISA analysis of naïve CD4 T cells were stimulated under TH2 polarization conditions for 96 hours with or without Dkk-1. FIG. 6C depicts flow cytometry analysis of Foxp3, IL-17A, and IL-10 expression in splenic naïve CD4 T cells isolated and differentiated into iTreg for 5 days with 100 U/ml IL-2 and 1.5 ng/ml TGF-β with or without 30 ng/ml and 3 ng/ml of Dkk-1 treated during the culture. FIG. 6D depicts Gata-3 expression levels of splenic naïve CD4 T cells from 8 week-old C57BL/6 mice treated with Dkk-1 with varying doses of Dkk-1 (50, 30, 7.5 ng/ml) or Wnt3a (20% v/v) for 96 hours in the presence of anti-CD3 and anti-CD28 antibody stimulation. FIG. 6E depicts qPCR results of Tcf7 and Lef1 mRNA harvested from splenic naïve CD4 T cells from 8 week-old C57BL/6 mice stimulated with or without Dkk-1 (30 ng/ml) for 96 hours. All results were statistically non-significant. All experiments are a representative of two to three independent experiments. Student's t-test or one way-ANOVA analysis with Bonferonni's post-hoc test were performed. Small horizontal lines and error bars indicate the mean (±s.e.m.). ***, p<0.0001, **, p<0.005, *, p<0.05.
FIG. 8, comprising FIG. 8A through FIG. 8G, depicts results of experiments showing Dkk-1 induces IL-10 in CD4 T cells via SGK-1 and p38 MAPK. FIG. 8A depicts ELISA analysis of naïve CD4 T cell differentiated into TH2 cells with or without Dkk-1 (30 ng/ml), SGK-1 inhibitor (2 μM) or p38 inhibitor (10 μM) for 96 hours. FIG. 8B depicts flow cytometry analysis of human naïve CD4 T cells (CD4^+CD25^−CD45RA^+) transduced with SGK-1 shRNA and selected with puromycin (0.5 μg/ml) for 48 hours. The selected cells were stimulated with anti-CD3 mAb (OKT3) and anti-CD28 mAb with or without Dkk-1 for 96 hr. For the last 5 hr of culture, stimulation cocktail (PMA/Ionomycin/Brefeldin A/Monensin) was added. FIG. 8C depicts intracellular staining with antibodies recognizing phospho-S6 kinase of splenic CD4^+CD25^− cells from 6 week-old C57BL/6 mice were isolated and activated with anti-CD3 and anti-CD28 mAb (2 μg/ml) with or without Dkk-1 (25 ng/ml) for indicated time points. FIG. 8D depicts intracellular staining with antibodies recognizing phospho-4E-BP1 of splenic CD4^+CD25^− cells from 6 week-old C57BL/6 mice were isolated and activated with anti-CD3 and anti-CD28 mAb (2 μg/ml) with or without Dkk-1 (25 ng/ml) for indicated time points. […]

Wnt3a: the Gata-3 expression entry is listed as “induced”.

Source of the values: patent US11135223B2, “Compositions and methods for inhibiting Dkk-1” (YALE UNIVERSITY, priority 2016, dated 2021).
